Experimental data from US11052154B2, “Ras protein degradation inducing molecule and pharmaceutical composition” (Tokyo University of Science Foundation, priority 2016, dated 2021).

Key:
SW1990 cells = experiment: Apoptosis induction in SW1990 cells, FACS analysis (Annexin V/PI); assay type: cell-based, human; conditions: SW1990 cells expressing G12D mutant K-Ras, 24 hours after addition; FIGS. 6B, 7B
Protocol: In Example 7, apoptosis induction in a case where TUS-007, Ras-SOS, or Ras-SOS-NH2 was added to HeLa cells or SW1990 cells (human pancreatic cancer cells) had been added was evaluated by the FACS analysis. It is noted that in HeLa cells, the wild-type K-Ras protein (K-Ras-WT) is expressed, and in SW1990 cells, the G12D mutant K-Ras protein (K-Ras-G12D) is expressed.
HeLa cells or SW1990 cells were seeded in a 24-well plate at a cell density of 8×10^4 cells/well, and then cultured under conditions of 37° C. and 5 vol % CO2 for 16 hours.
After 16 hours from cell seeding, TUS-007, Ras-SOS, or Ras-SOS-NH2 were added to HeLa cells or SW1990 cells as follows. As a medium, a serum-free medium (37° C.) in which 1 mass % L-glutamine solution (Sigma-Aldrich) was added to D-MEM (high D-glucose, phenol red, sodium pyruvate (Wako Pure Chemical Industries, Ltd.)) was used. It is noted that the L-glutamine solution was added immediately before use. A DMSO solution containing TUS-007, Ras-SOS, or Ras-SOS-NH2 was mixed with the medium so that the concentration of DMSO was 1 vol %, and added to each well at 500 μL/well, and cultured under conditions of 37° C. and 5 vol % CO2. As a control, DMSO was used.
The medium was removed 24 hours after addition of TUS-007, Ras-SOS, or Ras-SOS-NH2, and then PBS was added to wash the cells. After removing PBS, trypsin (0.25 w/v % trypsin-1 mmol/L EDTA⋅4 Na solution with phenol red) (Wako Pure Chemical Industries, Ltd.) at 37° C. was added to each well at 200 μL/well, and cultured under conditions of 37° C. and 5 vol % CO2 for 1 minute. […]
A BD FACSCanto™ II (BD Biosciences) was used for flow cytometry. […] The proportion of Annexin V-positive and PI-negative cells was calculated using an analysis software FlowJo™ (TOMY Digital Biology Co., Ltd.), and the proportion was defined as a proportion of apoptosis cells.
In Example 8, apoptosis induction in a case where TUS-007, Ras-SOS-NH2, or erlotinib as an anticancer agent (EGFR inhibitor) was added to HeLa cells or SW1990 cells was evaluated by FACS analysis as in Example 7.

[1] = biological target: T1, G12D mutant K-Ras protein (Homo sapiens, UniProt P01116, G12D); experiment: Degradation (knockdown) of G12D mutant K-Ras protein forcibly expressed in HeLa cells, Western blot analysis; assay type: cell-based; conditions: FIG. 4
T1 construct: expressed in transfected cells; host or cells: HeLa
Protocol: In Example 5, degradation (knockdown) of the G12D mutant K-Ras protein forcibly expressed in HeLa cells through TUS-007 was evaluated by Western blot analysis.
A plasmid expressing the G12D mutant K-Ras protein (K-Ras-G12D) was prepared, as in Example 4.
As in Example 4, the plasmid was introduced into HeLa cells to transiently overexpress a G12D mutant K-Ras protein or a DsRed protein for comparison in the cells. HeLa cells into which the plasmid had been introduced were seeded in a 24-well plate at a cell density of 4×10^4 cells/well, and then cultured under conditions of 37° C. and 5 vol % CO2 for 40 hours.
TUS-007 was added to HeLa cells as in Example 4. Furthermore, in addition to an experiment group in which a DMSO solution containing TUS-007 had been added, an experiment group in which a DMSO solution containing Ras-SOS-NH2 had been added was prepared. DMSO was used as a control.
As in Example 3, degradation of a G12D mutant K-Ras protein through TUS-007 was evaluated by Western blot analysis.

## CCC(C)[C@H](NC(=O)CCCCCCNC(=O)[C@H](CC(C)C)NC(=O)CNC(=O)c1cc(Cl)ccc1Cl)C(=O)Nc1ccc2[nH]c(Cc3c[nH]c4ccccc34)nc2c1 (stereo in doubt) [TUS-007]
SW1990 cells
  apoptosis induction (proportion of Annexin V-positive and PI-negative cells): the effect of the apoptosis by TUS-007 was high at the same level as in the case of the HeLa cells
[1]
  amount of the G12D mutant K-Ras protein (Western blot): the amount of the G12D mutant K-Ras protein was reduced in a concentration-dependent manner
